ChEMBL document CHEMBL3400084, “Synthesis and evaluation of tetrahydroindazole derivatives as sigma-2 receptor ligands” (Bioorg Med Chem, 2015)

Tests used:
[1] = biological target: Sigma non-opioid intracellular receptor 1 (Cavia porcellus, UniProt Q60492); test: Displacement of (+)-[3H]pentazocine from sigma 1 receptor in guinea pig brain homogenate after 120 mins by beta counting; format: tissue-based
[2] = Displacement of [3H]-di-o-tolylguanidine from sigma 2 receptor in Sprague-Dawley rat liver membranes after 120 mins by beta counting in presence of (+)-pentazocine; format: cell membranes, Membrane
[3] = Selectivity ratio of Ki for sigma 1 receptor in guinea pig brain homogenate to Ki for sigma 2 receptor in Sprague-Dawley rat liver membranes; format: cell membranes

Sequence of Sigma non-opioid intracellular receptor 1 (Q60492 whole entry): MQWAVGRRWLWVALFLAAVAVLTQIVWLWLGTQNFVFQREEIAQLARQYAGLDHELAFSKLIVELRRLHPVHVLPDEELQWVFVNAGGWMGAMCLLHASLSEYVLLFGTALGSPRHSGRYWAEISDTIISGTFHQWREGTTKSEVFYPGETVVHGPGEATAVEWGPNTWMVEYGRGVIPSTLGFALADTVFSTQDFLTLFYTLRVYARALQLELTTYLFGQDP

Row | Ki [1] | Ki [2] | Ratio Ki [3] | SMILES
1 | > 1000 nM | 89.8 nM | > 11 | COc1cc2c(cc1OC)CN(CCCNc1cc(-n3nc(C)c4c3CC(C)(C)CC4=O)ccc1C(N)=O)CC2
2 | > 1000 nM | 21500 nM |  | COc1cc2c(cc1OC)CN(CCCCCCNc1cc(-n3nc(C)c4c3CC(C)(C)CC4=O)ccc1C(N)=O)CC2
3 | > 1000 nM | 820 nM |  | COc1cc2c(cc1OC)CN(CCNc1cc(-n3nc(C)c4c3CC(C)(C)CC4=O)ccc1C(N)=O)CC2
4 | > 1000 nM | 18400 nM |  | COc1cc2c(cc1OC)CN(c1cc(-n3nc(C)c4c3CC(C)(C)CC4=O)ccc1C(N)=O)CC2
5 | > 1000 nM | 74.5 nM | > 13 | COc1cc2c(cc1OC)CN(CCCCCNc1cc(-n3nc(C)c4c3CC(C)(C)CC4=O)ccc1C(N)=O)CC2
6 |  | 19.4 nM |  | Cc1ccccc1NC(=N)Nc1ccccc1C [DITOLYLGUANIDINE]
7 | > 1000 nM | 142 nM | > 7 | COc1cc2c(cc1OC)CN(CCCCNc1cc(-n3nc(C)c4c3CC(C)(C)CC4=O)ccc1C(N)=O)CC2
8 | > 1000 nM | 46.6 nM | > 21 | Cc1nn(-c2ccc(C(N)=O)c(NC3CC4CCCC(C3)N4)c2)c2c1C(=O)CC(C)(C)C2 (centres undefined)
